From the CheMixHub viscosity set
Several values for one entry are separate records, joined by “and”; a condition that tells them apart may be missing. Identical values can stand only once.

Experiment: xn = mol fraction of the nth substance listed

CC(=O)[O-].CCn1cc[n+](CC)c1 + O
viscosity [mPa·s], 100 kPa
Conditions | x2 = 0.09432 | x2 = 0.2079 | x2 = 0.3498 | x2 = 0.453 | x2 = 0.5329
298.15 K | 129.4 | 120.3 | 79.4 | 62.7 | 50.4
323.15 K | 38.2 | 36.6 | 26.3 | 21.5 | 17.9

CCCCN + O
viscosity
Conditions | 298.15 K | 303.15 K | 308.15 K | 313.15 K | 318.15 K | 323.15 K
100 kPa, x1 = 0.1 | – | 1.869 mPa·s | – | 1.43 mPa·s | – | 1.133 mPa·s
100 kPa, x1 = 0.2 | – | 2.115 mPa·s | – | 1.604 mPa·s | – | 1.25 mPa·s
100 kPa, x1 = 0.3 | – | 1.933 mPa·s | – | 1.462 mPa·s | – | 1.143 mPa·s
100 kPa, x1 = 0.4 | – | 1.597 mPa·s | – | 1.234 mPa·s | – | 0.979 mPa·s
100 kPa, x1 = 0.5 | – | 1.273 mPa·s | – | 0.996 mPa·s | – | 0.808 mPa·s
100 kPa, x1 = 0.6 | – | 0.993 mPa·s | – | 0.796 mPa·s | – | 0.654 mPa·s
100 kPa, x1 = 0.7 | – | 0.786 mPa·s | – | 0.649 mPa·s | – | 0.547 mPa·s
100 kPa, x1 = 0.8 | – | 0.626 mPa·s | – | 0.533 mPa·s | – | 0.453 mPa·s
100 kPa, x1 = 0.9 | – | 0.541 mPa·s | – | 0.454 mPa·s | – | 0.393 mPa·s
101.33 kPa, x1 = 0.0001 | – | 0.8019 mPa·s | 0.7212 mPa·s | 0.6564 mPa·s | 0.6007 mPa·s | 0.5542 mPa·s
101.33 kPa, x1 = 0.1 | 2.372 mPa·s | 1.885 mPa·s | 1.642 mPa·s | 1.574 mPa·s and 1.441 mPa·s | 1.278 mPa·s | 1.142 mPa·s
101.33 kPa, x1 = 0.1998 | – | 2.149 mPa·s | 1.861 mPa·s | 1.625 mPa·s | 1.433 mPa·s | 1.271 mPa·s
101.33 kPa, x1 = 0.2 | 2.685 mPa·s | – | – | 1.742 mPa·s | – | –
101.33 kPa, x1 = 0.2999 | – | 1.964 mPa·s | 1.707 mPa·s | 1.494 mPa·s | 1.318 mPa·s | 1.172 mPa·s
101.33 kPa, x1 = 0.3999 | – | 1.601 mPa·s | 1.405 mPa·s | 1.242 mPa·s | 1.111 mPa·s | 0.9871 mPa·s
101.33 kPa, x1 = 0.4 | 2.006 mPa·s | – | – | 1.353 mPa·s | – | –
101.33 kPa, x1 = 0.5 | – | 1.259 mPa·s | 1.118 mPa·s | 0.9974 mPa·s | 0.8979 mPa·s | 0.8131 mPa·s
101.33 kPa, x1 = 0.5997 | – | 0.9797 mPa·s | 0.8813 mPa·s | 0.7976 mPa·s | 0.726 mPa·s | 0.6647 mPa·s
101.33 kPa, x1 = 0.6 | 1.153 mPa·s | – | – | 0.842 mPa·s | – | –
101.33 kPa, x1 = 0.7 | – | 0.7677 mPa·s | 0.701 mPa·s | 0.6419 mPa·s | 0.5911 mPa·s | 0.5472 mPa·s
101.33 kPa, x1 = 0.7999 | – | 0.6277 mPa·s | 0.5795 mPa·s | 0.5366 mPa·s | 0.4994 mPa·s | 0.4656 mPa·s
101.33 kPa, x1 = 0.8 | 0.686 mPa·s | – | – | 0.54 mPa·s | – | –
101.33 kPa, x1 = 0.9001 | – | 0.5178 mPa·s | 0.4829 mPa·s | 0.4518 mPa·s | 0.4243 mPa·s | 0.399 mPa·s

CCn1ccnc1 + O
viscosity [mPa·s], 100 kPa
Conditions | 298.15 K | 308.15 K | 318.15 K
x1 = 0.05 | 1.48 | 1.16 | 0.94
x1 = 0.1007 | 2.04 | 1.56 | 1.23
x1 = 0.1995 | 2.99 | 2.21 | 1.7
x1 = 0.2988 | 3.68 | 2.67 | 2.03
x1 = 0.3937 | 4.05 | 2.92 | 2.19
x1 = 0.4933 | 4.05 | 2.93 | 2.21
x1 = 0.6011 | 3.84 | 2.81 | 2.14
x1 = 0.695 | 3.18 | 2.41 | 1.89
x1 = 0.7956 | 2.65 | 2.07 | 1.67
x1 = 0.89 | 2.27 | 1.82 | 1.5
x1 = 0.9542 | 2.05 | 1.67 | 1.39

Cc1ccncc1 + O
Conditions | viscosity [mPa·s]
318.15 K, 101 kPa, x1 = 0.4 | 1.365

O=C(O)[C@H](O)[C@@H](O)C(=O)O + O
298.2 K, 101.33 kPa
Conditions | viscosity [mPa·s]
x1 = 0.00125 | 0.9157
x1 = 0.002751 | 0.942
x1 = 0.00453 | 0.9725
x1 = 0.00652 | 0.9964
x1 = 0.008655 | 1.043
x1 = 0.01037 | 1.046
x1 = 0.01172 | 1.088

O=C([O-])CC(=O)[O-].[Na+].[Na+] + O
viscosity, 101 kPa
Conditions | x1 = 9e-05 | x1 = 0.00018 | x1 = 0.00027 | x1 = 0.00036
298.15 K | 0.8932 mPa·s and 0.8932 mPa·s | 0.8959 mPa·s and 0.8959 mPa·s | 0.8987 mPa·s and 0.8987 mPa·s | 0.9014 mPa·s and 0.9014 mPa·s
308.15 K | 0.7222 mPa·s and 0.7222 mPa·s | 0.7237 mPa·s and 0.7237 mPa·s | 0.7253 mPa·s and 0.7253 mPa·s | 0.7279 mPa·s and 0.7279 mPa·s
318.15 K | 0.598 mPa·s and 0.598 mPa·s | 0.6007 mPa·s and 0.6007 mPa·s | 0.6021 mPa·s and 0.6021 mPa·s | 0.6048 mPa·s and 0.6048 mPa·s

O=[N+]([O-])[O-].[Ag+] + O
298.15 K, 101 kPa
Conditions | viscosity [mPa·s]
x1 = 0.02589 | 0.99
x1 = 0.05251 | 1.134
x1 = 0.09523 | 1.451
x1 = 0.1797 | 2.439

O=c1[nH]cc(F)c(=O)[nH]1 + O
298.15 K, 101.3 kPa
Conditions | viscosity [mPa·s]
x1 = 3.46e-05 | 0.8891
x1 = 9.06e-05 | 0.8892
x1 = 0.000191 | 0.8901
x1 = 0.000303 | 0.8905
x1 = 0.000519 | 0.8917
x1 = 0.000754 | 0.8926
x1 = 0.000864 | 0.8933
x1 = 0.00108 | 0.8946

[I-].[K+] + O
310.15 K, 101 kPa
Conditions | viscosity [mPa·s]
x1 = 0.000916 | 0.6942
x1 = 0.001822 | 0.6976
x1 = 0.001827 | 0.7047
x1 = 0.002695 | 0.7079
x1 = 0.003679 | 0.7155
x1 = 0.005197 | 0.7273
x1 = 0.005988 | 0.7335
